Converted amounts (≈) assume the structure as drawn. The source made the active and inactive calls. No cut-off for these calls is given here.
What was measured:
[1] = test system: Stimulator of interferon genes protein (Homo sapiens), Q86WV6 [UNDEFINED MUTATION]; test: Binding affinity to recombinant human STING H232 variant expressed in Escherichia coli BL21 (DE3) assessed as thermal stabilization by measuring change in melting temperature at 2 mM incubated for 30 mins by SYPRO orange dye based differential scanning fluorimetry assay
[2] = target: T1, Stimulator of interferon genes protein (Homo sapiens, UniProt Q86WV6); test: Agonist activity at STING in human THP-1 cells harboring IRF-inducible luciferase reporter construct assessed as fold change in ISG signalling at 20 uM incubated for 12 hrs by Quanti-luc reagent based assay relative to control; assay type: cell-based; details: filed as agonist
[3] = target: T1, Stimulator of interferon genes protein; test: Agonist activity at STING in human THP-1 cells harboring IRF-inducible luciferase reporter construct assessed as increase in ISG signalling incubated for 12 hrs by Quanti-luc reagent based assay; assay type: cell-based
[4] = target: T1, Stimulator of interferon genes protein; test: Agonist activity at STING in cGAS knockout human THP-1 cells harboring IRF-inducible luciferase reporter construct assessed as increase in ISG signalling at 20 uM incubated for 12 hrs by Quanti-luc reagent based assay; assay type: cell-based; details: filed as agonist
[5] = target: T2, Stimulator of interferon genes protein (Mus musculus) (UniProt Q3TBT3); test: Agonist activity at STING in mouse RAW264.7 cells harboring IRF-inducible luciferase reporter construct assessed as increase in ISG signalling at 20 uM incubated for 12 hrs by Quanti-luc reagent based assay; assay type: cell-based; details: filed as agonist
T2 sequence (whole entry): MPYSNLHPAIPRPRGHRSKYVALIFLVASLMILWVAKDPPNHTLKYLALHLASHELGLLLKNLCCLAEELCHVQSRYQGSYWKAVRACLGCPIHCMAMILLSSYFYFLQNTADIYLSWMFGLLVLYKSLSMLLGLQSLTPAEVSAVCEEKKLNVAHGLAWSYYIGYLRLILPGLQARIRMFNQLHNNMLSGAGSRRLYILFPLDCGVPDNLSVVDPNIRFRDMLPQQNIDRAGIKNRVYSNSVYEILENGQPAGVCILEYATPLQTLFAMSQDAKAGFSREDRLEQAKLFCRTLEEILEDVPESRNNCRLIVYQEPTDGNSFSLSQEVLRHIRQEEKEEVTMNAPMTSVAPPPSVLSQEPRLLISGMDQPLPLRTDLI

[6] = test system: Stimulator of interferon genes protein (Homo sapiens), Q86WV6 [UNDEFINED MUTATION]; test: Binding affinity to recombinant human STING AQ variant expressed in Escherichia coli BL21 (DE3) assessed as thermal stabilization by measuring change in melting temperature at 0.1 mM incubated for 30 mins by SYPRO orange dye based differential scanning fluorimetry assay
CYP3A4 = CYP3A4 (Homo sapiens, UniProt P08684); test: Inhibition of recombinant CYP3A4 (unknown origin) using midazolam as substrate assessed as reduction in substrate hydroxylation at 10 uM incubated for 5 mins in presence of NADPH by LC-MS/MS analysis relative to control; assay type: ADME; details: recombinant CYP3A4, probe midazolam
[7] = Lipophilicity, logP of compound by RP-HPLC analysis; assay type: physicochemical
[8] = Protein binding in plasma (unknown origin) assessed as unbound fraction at 2 uM incubated for 4 hrs under shaking condition by rapid equilibrium dialysis method; assay type: ADME, cell-free
[9] = Volume of distribution at steady state in Sprague-Dawley rat at 50 mg/kg, po measured for 1440 mins by LC-MS/MS analysis; assay type: ADME, organism-based; details: in vivo, 24 h
[10] = Oral bioavailability in Sprague-Dawley rat at 50 mg/kg measured for 1440 mins by LC-MS/MS analysis; assay type: ADME, organism-based; details: in vivo
[11] = Solubility of compound in PBS buffer at pH 7.4 at 3 mg incubated for 24 hrs under shaking condition by RP-HPLC analysis; assay type: physicochemical
[12] = Aqueous solubility of compound at 3 mg incubated for 24 hrs under shaking condition by RP-HPLC analysis; assay type: physicochemical; details: water
[13] = Cmax in Sprague-Dawley rat at 50 mg/kg, po measured for 1440 mins by LC-MS/MS analysis; assay type: ADME, organism-based; parameters: time 1440 min, dose 50 mg/kg, route po; details: in vivo
[14] = AUC (0 to infinity) in Sprague-Dawley rat at 5 mg/kg, iv measured for 1440 mins by LC-MS/MS analysis; assay type: ADME, organism-based; parameters: dose 5 mg/kg, time 1440 min, route iv; details: in vivo
4T1 [15] = test: Antitumor activity against mouse 4T1 cells implanted in naive BALB/c mouse assessed as increase in Ki67-positive CD4 T cells in tumor at 80 mg/kg, po administered once every 5 days by FACS analysis (reference value: 4.4%); assay type: functional; details: time 5 day
[16] = Clearance in Sprague-Dawley rat at 5 mg/kg, iv measured for 1440 mins by LC-MS/MS analysis; assay type: ADME, organism-based; details: in vivo
[17] = Half life in Sprague-Dawley rat at 50 mg/kg, po measured for 1440 mins by LC-MS/MS analysis; assay type: ADME, organism-based; details: in vivo
[18] = Stability in rat liver microsomes assessed as parent compound remaining at 1 uM incubated for 2 hrs in presence of NADPH by LC-MS/MS analysis; assay type: ADME, Microsome; details: read-out: Stability
[19] = Permeability of the compound in PBS buffer incubated for 5 hrs by PAMPA-based LC-MS/MS analysis; assay type: ADME; details: read-out: permeability
[20] = Half life in Sprague-Dawley rat at 5 mg/kg, iv measured for 1440 mins by LC-MS/MS analysis; assay type: ADME, organism-based; details: in vivo
hERG = hERG (Homo sapiens, UniProt Q12809); test: Inhibition of hERG expressed in HEK293 cells at 10 uM incubated for 5 mins by QPatch automated patch-clamp technique relative to control; assay type: toxicity, cell-based; details: HEK293 cells that express hERG
[21] = Clearance in Sprague-Dawley rat at 50 mg/kg, po measured for 1440 mins by LC-MS/MS analysis; assay type: ADME, organism-based; details: in vivo
[22] = Volume of distribution at steady state in Sprague-Dawley rat at 5 mg/kg, iv measured for 1440 mins by LC-MS/MS analysis; assay type: ADME, organism-based; details: in vivo, read-out: Vdss
[23] = test system: Stimulator of interferon genes protein (Homo sapiens), Q86WV6 [UNDEFINED MUTATION]; test: Binding affinity to recombinant human STING R232 variant expressed in Escherichia coli BL21 (DE3) assessed as thermal stabilization by measuring change in melting temperature at 0.1 mM incubated for 30 mins by SYPRO orange dye based differential scanning fluorimetry assay
[24] = AUC (0 to infinity) in Sprague-Dawley rat at 50 mg/kg, po measured for 1440 mins by LC-MS/MS analysis; assay type: ADME, organism-based; parameters: time 1440 min, dose 50 mg/kg, route po; details: in vivo
[25] = Stability in human plasma assessed as parent compound remaining at 1 uM incubated for 24 hrs in presence of NADPH by LC-MS/MS analysis; assay type: ADME, cell-free; details: read-out: Stability
4T1 [26] = test: Antitumor activity against mouse 4T1 cells implanted in naive BALB/c mouse assessed as increase in Ki67-positive CD8 T cells in tumor at 80 mg/kg, po administered once every 5 days by FACS analysis (reference value: 14%); assay type: functional; details: time 5 day

T1 sequence (Q86WV6 whole entry): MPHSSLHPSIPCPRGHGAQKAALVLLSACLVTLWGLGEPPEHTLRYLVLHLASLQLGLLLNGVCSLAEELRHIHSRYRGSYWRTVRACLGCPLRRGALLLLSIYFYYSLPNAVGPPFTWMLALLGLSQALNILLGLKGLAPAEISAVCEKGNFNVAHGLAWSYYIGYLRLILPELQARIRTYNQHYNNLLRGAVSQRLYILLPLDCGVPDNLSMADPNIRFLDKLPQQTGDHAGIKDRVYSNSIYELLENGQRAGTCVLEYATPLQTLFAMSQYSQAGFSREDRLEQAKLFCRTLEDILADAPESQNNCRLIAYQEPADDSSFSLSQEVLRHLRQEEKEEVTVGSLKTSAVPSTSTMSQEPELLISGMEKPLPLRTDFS
Chain of Stimulator of interferon genes protein (Homo sapiens), Q86WV6 [UNDEFINED MUTATION] (Q86WV6 whole entry, looked up, stated change not applied): as the sequence (Q86WV6 whole entry) above
Chain of hERG (Q12809 whole entry): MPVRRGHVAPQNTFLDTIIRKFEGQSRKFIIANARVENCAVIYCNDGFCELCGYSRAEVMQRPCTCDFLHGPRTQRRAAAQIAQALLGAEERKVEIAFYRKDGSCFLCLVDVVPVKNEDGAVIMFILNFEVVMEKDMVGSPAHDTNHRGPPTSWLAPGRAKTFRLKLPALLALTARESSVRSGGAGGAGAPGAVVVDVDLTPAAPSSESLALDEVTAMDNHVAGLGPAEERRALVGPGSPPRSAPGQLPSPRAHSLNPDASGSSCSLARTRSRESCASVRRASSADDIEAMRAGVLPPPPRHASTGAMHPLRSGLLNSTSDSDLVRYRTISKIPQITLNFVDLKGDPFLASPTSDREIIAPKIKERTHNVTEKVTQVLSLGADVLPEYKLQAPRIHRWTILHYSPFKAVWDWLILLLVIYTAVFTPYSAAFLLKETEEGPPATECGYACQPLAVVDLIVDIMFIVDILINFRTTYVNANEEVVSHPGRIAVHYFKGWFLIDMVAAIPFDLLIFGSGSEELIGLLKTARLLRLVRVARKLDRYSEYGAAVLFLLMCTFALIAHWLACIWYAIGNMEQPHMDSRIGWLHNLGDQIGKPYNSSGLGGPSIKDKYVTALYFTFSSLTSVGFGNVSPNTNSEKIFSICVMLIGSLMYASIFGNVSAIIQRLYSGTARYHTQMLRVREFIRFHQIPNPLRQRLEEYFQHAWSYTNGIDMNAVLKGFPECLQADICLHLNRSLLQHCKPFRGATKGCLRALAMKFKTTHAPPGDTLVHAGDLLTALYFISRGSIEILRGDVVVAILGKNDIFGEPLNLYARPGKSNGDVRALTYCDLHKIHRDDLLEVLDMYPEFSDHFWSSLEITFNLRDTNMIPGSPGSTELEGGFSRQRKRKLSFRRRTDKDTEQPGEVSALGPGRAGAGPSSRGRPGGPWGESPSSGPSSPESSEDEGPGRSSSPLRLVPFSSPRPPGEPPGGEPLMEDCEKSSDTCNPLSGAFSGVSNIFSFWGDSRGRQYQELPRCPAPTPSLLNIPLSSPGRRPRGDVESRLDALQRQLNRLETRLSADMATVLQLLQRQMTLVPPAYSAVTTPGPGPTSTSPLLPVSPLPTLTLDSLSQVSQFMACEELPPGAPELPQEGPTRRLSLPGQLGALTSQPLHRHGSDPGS
Chain of CYP3A4 (P08684 whole entry): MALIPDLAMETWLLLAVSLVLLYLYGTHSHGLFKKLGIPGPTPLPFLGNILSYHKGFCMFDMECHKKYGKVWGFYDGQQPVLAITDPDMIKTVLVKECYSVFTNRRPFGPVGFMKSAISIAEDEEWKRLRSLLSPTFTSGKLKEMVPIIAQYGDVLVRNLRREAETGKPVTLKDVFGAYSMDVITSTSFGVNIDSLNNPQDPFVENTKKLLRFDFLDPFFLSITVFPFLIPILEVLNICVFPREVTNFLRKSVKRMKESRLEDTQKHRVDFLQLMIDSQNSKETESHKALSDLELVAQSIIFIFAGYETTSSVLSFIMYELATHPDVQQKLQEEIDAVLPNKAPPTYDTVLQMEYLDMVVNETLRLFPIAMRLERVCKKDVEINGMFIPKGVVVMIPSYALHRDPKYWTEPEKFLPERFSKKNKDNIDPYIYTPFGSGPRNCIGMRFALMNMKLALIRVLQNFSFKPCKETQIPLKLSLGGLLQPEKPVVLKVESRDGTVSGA

COCC(CC(=O)c1cc2cc(OC)c(OC)cc2[se]1)C(=O)O (racemic)
ΔTm [1]: 0.9 °C | fold change (FC) [2]: 7

COc1cc2cc(C(=O)C3CC3C(=O)O)[se]c2cc1OC (racemic)
ΔTm [1]: 6.2 °C | fold change (FC) [2]: 7

COc1cc2cc(C(=O)CC(C)C(=O)O)[se]c2cc1OC (racemic)
EC50 [3]: 21.3 µM | Activity [4]: Active | Activity [5]: Active | ΔTm [1]: 2.7 °C | fold change (FC) [2]: 15

COc1cc2cc(C(=O)CC(C)(C)C(=O)O)[se]c2cc1OC
ΔTm [1]: -1.5 °C | fold change (FC) [2]: 5

CCCC(CC(=O)c1cc2cc(OC)c(OC)cc2[se]1)C(=O)O (racemic)
ΔTm [1]: -1.2 °C | fold change (FC) [2]: 14

COc1cc2cc(C(=O)CCC(=O)O)[se]c2cc1OC
ΔTm [1]: -1.1 °C | fold change (FC) [2]: 2

CCC(CC(=O)c1cc2cc(OC)c(OC)cc2s1)C(=O)O (racemic)
ΔTm [1]: 4.7 °C | fold change (FC) [2]: 18

COc1cc2cc(C(=O)CCC(=O)O)sc2cc1OC
ΔTm [6]: 23.3 °C | inhibition at 5 min, 10 µM (CYP3A4): 7.59% | logP [7]: 1.5 | Fu [8]: 0.19% | Vdss [9]: 2.18 L/kg | bioavailability [10]: 58% | solubility thermodynamic at 24 h [11]: 300 µg/mL (≈ 1020 µM) | solubility thermodynamic at 24 h [12]: 6 µg/mL (≈ 20.4 µM) | Cmax [13]: 23300 ng/mL | AUC(0-inf) [14]: 9800 ng·h/mL | Activity (4T1 [15]): 5.5% | clearance [16]: 8.5 mL/min/kg | half-life [17]: 99 min | remaining at 2 h, 1 µM [18]: 87% | Papp at 5 h [19]: 1.7 ×10⁻⁶ cm/s | half-life [20]: 103 min | inhibition at 5 min, 10 µM (hERG): 0.86% | CL/F [21]: 15.2 mL/min/kg | Vd [22]: 1.28 L/kg | ΔTm [23]: 9.1 °C | ΔTm [1]: 3.9 °C | AUC(0-inf) [24]: 56800 ng·h/mL | remaining at 24 h, 1 µM [25]: 100% | fold change (FC) [2]: 32 | Activity (4T1 [26]): 7.7%

COc1cc2cc(C(=O)C3CCC3C(=O)O)[se]c2cc1OC (racemic)
ΔTm [1]: 9.1 °C | fold change (FC) [2]: 24

COc1ccc2[se]c(C(=O)CC(C)C(=O)O)cc2c1 (racemic)
ΔTm [1]: -0.3 °C

COc1cc2cc(C(=O)CC(C(=O)O)C(C)C)[se]c2cc1OC (racemic)
ΔTm [1]: -1.9 °C | fold change (FC) [2]: 10

CCC(=O)C(C)CC(=O)c1cc2cc(OC)c(OC)cc2[se]1 (stereo not given)
ΔTm [1]: -0.2 °C | fold change (FC) [2]: 15

CC(CC(=O)c1cc2cc3c(cc2[se]1)OCO3)C(=O)O (racemic)
ΔTm [1]: -0.5 °C

CCC(CC(=O)c1cc2cc(OC)c(OC)cc2o1)C(=O)O (racemic)
ΔTm [1]: -0.1 °C

CCC(CC(=O)c1cc2cc(OC)c(OC)cc2[se]1)C(=O)O (racemic)
ΔTm [1]: 4.5 °C | fold change (FC) [2]: 27

COc1cc2cc(C(=O)CC(C)C(N)=O)[se]c2cc1OC (racemic)
ΔTm [1]: -0.8 °C

COc1ccc2cc(C(=O)CC(C)C(=O)O)[se]c2c1 (racemic)
ΔTm [1]: -0.1 °C

— ChEMBL document CHEMBL5214933, “Discovery of Selenium-Containing STING Agonists as Orally Available Antitumor Agents” (J Med Chem, 2022)
